Values joined by “and” are separate entries in the source; they are usually repeats but may differ in a detail not shown here. Equal values may be shown once. Read-outs that look alike come from different tables or passages of the source. Marks after values point to notes of the source that are not given here.
Experiments:
[1] = Aqueous stability at biorelevant pH values, 37 °C (UHPLC-DAD); assay type: physicochemical; settings: for half-life at 100 µM / degradation rate constant k: first-order; for half-life at 100 µM: read-out: half-life t1/2 (converted)
Description: (§1) For the analysis of the samples from the chemical stability as well as the PAMPA studies, sample concentrations were determined using our previously developed ultrahigh-performance liquid chromatography–diode array detection (UHPLC-DAD) method validated for linearity, precision and accuracy. Briefly, an ACQUITY UPLC H-Class PLUS System hyphenated with a quaternary solvent delivery pump (QSM), an auto-sampler manager (FTN), a column compartment (CM) and a photodiode array (PDA) detector (Waters Corporation) was employed. Stationary phase: Acquity BEH C18 column (100 × 2.1 mm i.d., 1.7 µm; Waters Corporation), column temperature: 30 °C. The mobile phase consisted of 0.3% acetic acid in water (eluent A) and acetonitrile (eluent B). The following gradient elution was applied at a flow rate of 0.3 mL/min: 0 min 12.0% B, 19.0 min 13.5% B, 25.5 min 75.0% B, 26.0 min 100.0% B, 28.0 min 100.0% B, 28.5 min 12.0% B.
The buffers modelling the gastric fluid (pH 1.2), the intestinal fluid (pH 6.8) and the blood and the tissues (pH 7.4) were prepared as follows. Buffer pH = 1.2: 1.0 g NaCl and 3.5 mL HCl dissolved in distilled water, final volume: 500.0 mL. Buffer pH = 6.8: 20.2 g Na2HPO4∙7H2O and 3.4 g NaH2PO4∙H2O dissolved in distilled water, final volume: 1000.0 mL, pH adjustment with 0.5 M NaOH or 0.5 M HCl. Buffer pH = 7.4: one PBS tablet dissolved in 200.0 mL distilled water. The stock solutions of compounds 1–4 were prepared with dimethyl sulfoxide (DMSO) at a concentration of 10.0 mM. The stock solutions were diluted 100-fold with each buffer separately to obtain the working solutions (297.0 μL buffer + 3.0 μL stock solution). All working solutions were filtered through Phenex-RC 15 mm, 0.2 μm syringe filters (Gen-Lab Ltd., Budapest, Hungary). The samples were incubated for 81 h at 37 °C; aliquots were taken for analysis every 9 h in accordance with the time required to quantify the analytes of interest in one set of samples. The total incubation time of 81 h was applied to obtain data for ten measurement points. The previously described UHPLC-DAD method was used to examine the changes in compound concentrations (see Section 3.4).
For the determination of pH stability, the initial AUC values were compared with the data after 9 and 81 h using paired-sample t test; significant difference was reported at p < 0.05. The effects of the pH were analysed through one-way analysis of variance (ANOVA) followed by Tukey’s post hoc HSD test (p < 0.05). All experiments were performed in triplicates (n = 3).
(§2) We used the following equations to calculate the first-order reaction rate constant (k) and the half-life (t1/2) indicating the time required to reduce the concentration of diarylheptanoids by 50% [29]:ln (ct/c0) = −k × t(1) t1/2 = −ln 0.5 × k^−1(2) where ct is the concentration of the diarylheptanoids at time t, c0 is the initial concentration, k is the reaction rate constant, t is the treatment time.

[2] = Storage stability in solutions and hornbeam bark extracts (UHPLC-DAD); assay type: physicochemical; settings: for k / t1/2: storage 23 weeks
Description: as §1, §2
The chemical stability of the isolated compounds in solutions was examined at a concentration of 50 µg/mL in methanol and water (in the latter case using methanol as co-solvent, final composition: water-methanol 90:10, v/v). Furthermore, the methanol and ethyl acetate extracts of C. betulus bark (concentration 4 mg/mL) were also studied in order to assess the effects of the accompanying substances. The storage stability studies were performed at a neutral pH value. All solutions were filtered through Phenex-RC 15 mm, 0.2 μm syringe filters (Gen-Lab Ltd., Budapest, Hungary). The samples were prepared in triplicate and stored protected from light at 22 ± 2.0 °C, 5 ± 1.5 °C and −15 ± 2.0 °C for 23 weeks. Quantities of the analytes of interest were quantified at weeks 12 and 23 using the abovementioned UHPLC-DAD method (see Section 3.4).
The effects of the temperature and the medium (i.e., solvent and accompanying substances) were analysed through one-way analysis of variance (ANOVA) followed by Tukey’s post hoc HSD test (p < 0.05). To establish the kinetic parameters t1/2 and k, Equations (1) and (2) were applied, respectively.

Compound: O=C1C[C@H](O)[C@@H](O)Cc2ccc(O)c(c2)-c2cc(ccc2O)C[C@H]1O [Compound 1, carpinontriol A]
- relative concentration compared to the initial value ([1]; 9 h, pH 1.2, 37 °C): 97.1 ± 8.9 ^a %
- relative concentration compared to the initial value ([1]; 9 h, pH 6.8, 37 °C): 97.4 ± 1.5% and 97.4 ± 1.5 ^#a %
- relative concentration compared to the initial value ([1]; 9 h, pH 7.4, 37 °C): 96.9 ± 1.2 ^a %
- relative concentration compared to the initial value ([1]; 81 h, pH 1.2, 37 °C): 70.5 ± 2.6% and 70.5 ± 2.6 ^#b %
- relative concentration compared to the initial value ([1]; 81 h, pH 6.8, 37 °C): 75.3 ± 3.0% and 75.3 ± 3.0 ^#b %
- relative concentration compared to the initial value ([1]; 81 h, pH 7.4, 37 °C): 71.5 ± 5.2% and 71.5 ± 5.2 ^#b %
- half-life at 100 µM ([1]; NaCl/HCl buffer, pH 1.2, 37 °C): 167 h
- half-life at 100 µM ([1]; PBS, pH 7.4, 37 °C): 166 h
- degradation rate constant k ([1]; pH 1.2, 37 °C): 0.00415 h⁻¹
- degradation rate constant k ([1]; pH 6.8, 37 °C): 0.00365 h⁻¹
- degradation rate constant k ([1]; pH 7.4, 37 °C): 0.00419 h⁻¹
- half-life at 100 µM ([1]; sodium phosphate buffer, pH 6.8, 37 °C): 190 h
- k ([2]; 5 °C, SA (aqueous solution)): 4.47 × 10^−3 Week^−1
- t1/2 ([2]; 5 °C, SA (aqueous solution)): 147.48 Week
- k ([2]; 5 °C, SM (methanol solution)): 1.40 × 10^−2 Week^−1
- concentration as compared to the initial value ([2]; 12 weeks, 5 °C, EE (ethyl acetate extract of bark)): 104.6 ± 1.0 ^#bcg %
- concentration as compared to the initial value ([2]; 12 weeks, 5 °C, EM (methanol extract of bark)): 110.1 ± 6.2 ^bc %
- concentration as compared to the initial value ([2]; 12 weeks, 5 °C, SA (aqueous solution)): 91.4 ± 0.2 ^#def %
- concentration as compared to the initial value ([2]; 12 weeks, 5 °C, SM (methanol solution)): 90.8 ± 2.3 ^#def %
- concentration as compared to the initial value ([2]; 12 weeks, 22 °C, EE (ethyl acetate extract of bark)): 110.9 ± 3.6 ^#bc %
- concentration as compared to the initial value ([2]; 12 weeks, 22 °C, EM (methanol extract of bark)): 114.0 ± 2.2 ^#b %
- concentration as compared to the initial value ([2]; 12 weeks, 22 °C, SA (aqueous solution)): 61.7 ± 5.7 ^#a %
- concentration as compared to the initial value ([2]; 12 weeks, 22 °C, SM (methanol solution)): 63.5 ± 8.7 ^#a %
- concentration as compared to the initial value ([2]; 12 weeks, −15 °C, EE (ethyl acetate extract of bark)): 100.5 ± 0.5 ^ceg %
- concentration as compared to the initial value ([2]; 12 weeks, −15 °C, EM (methanol extract of bark)): 108.7 ± 1.5 ^#bc %
- concentration as compared to the initial value ([2]; 12 weeks, −15 °C, SA (aqueous solution)): 93.5 ± 0.4 ^#ef %
- concentration as compared to the initial value ([2]; 12 weeks, −15 °C, SM (methanol solution)): 94.0 ± 0.8 ^#efg %
- k ([2]; 22 °C, SA (aqueous solution)): 5.97 × 10^−2 Week^−1
- t1/2 ([2]; 22 °C, SA (aqueous solution)): 11.61 Week
- k ([2]; 22 °C, SM (methanol solution)): 4.53 × 10^−2 Week^−1
- t1/2 ([2]; 22 °C, SM (methanol solution)): 15.30 Week
- concentration as compared to the initial value ([2]; 23 weeks, 5 °C, EE (ethyl acetate extract of bark)): 92.1 ± 1.3 ^#def %
- concentration as compared to the initial value ([2]; 23 weeks, 5 °C, EM (methanol extract of bark)): 84.1 ± 1.1 ^#dfi %
- concentration as compared to the initial value ([2]; 23 weeks, 5 °C, SA (aqueous solution)): 87.2 ± 0.4 ^#dfi %
- concentration as compared to the initial value ([2]; 23 weeks, 5 °C, SM (methanol solution)): 67.1 ± 7.5 ^#aj %
- concentration as compared to the initial value ([2]; 23 weeks, 22 °C, EE (ethyl acetate extract of bark)): 81.5 ± 3.9 ^#di %
- concentration as compared to the initial value ([2]; 23 weeks, 22 °C, EM (methanol extract of bark)): 77.7 ± 2.9 ^#ij %
- concentration as compared to the initial value ([2]; 23 weeks, 22 °C, SA (aqueous solution)): 23.0 ± 0.5 ^#h %
- concentration as compared to the initial value ([2]; 23 weeks, 22 °C, SM (methanol solution)): 32.3 ± 6.3 ^#h %
- concentration as compared to the initial value ([2]; 23 weeks, −15 °C, EE (ethyl acetate extract of bark)): 91.3 ± 4.2 ^#def %
- concentration as compared to the initial value ([2]; 23 weeks, −15 °C, EM (methanol extract of bark)): 88.3 ± 3.4 ^#dfi %
- concentration as compared to the initial value ([2]; 23 weeks, −15 °C, SA (aqueous solution)): 93.7 ± 0.3 ^#efg %
- concentration as compared to the initial value ([2]; 23 weeks, −15 °C, SM (methanol solution)): 88.9 ± 3.1 ^#dfi %
- k ([2]; −15 °C, SA (aqueous solution)): 1.70 × 10^−3 Week^−1
- t1/2 ([2]; −15 °C, SA (aqueous solution)): 407.73 Week
- k ([2]; −15 °C, SM (methanol solution)): 3.60 × 10^−3 Week^−1
- t1/2 ([2]; −15 °C, SM (methanol solution)): 192.54 Week

Source: publication PMC10488193, “Evaluation of the Chemical Stability, Membrane Permeability and Antiproliferative Activity of Cyclic Diarylheptanoids from European Hornbeam (Carpinus betulus L.)” (International Journal of Molecular Sciences, 2023)
